{"source": "patent US20250258179A1", "about": "“Method for Estimating Meal Component Bioavailability” (The Texas A&M University System, priority 2024, published 2025)", "origin": "cited, not measured here", "test_system": "critically ill patients", "conditions": "recently shown", "data": [{"smiles": "CC(C)(O)CC(=O)O", "note": "[HMB, hydroxy-methylbutyric acid]", "values": [{"measurement": "protein breakdown", "value": "reduction in protein breakdown"}]}]}
